One assay concerns wild-type vaccinia virus. Type of assay: cell-based.
The next assay has as its system VHE H5 HX-A56R NEO. It counts as cell-based, vaccinia virus.

The results in this text go back to US9701958B2, “Method for selecting polynucleotides encoding antigen-specific immunoglobulin subunits” (priority 2012, dated 2017).

Like-named read-outs stand apart in the source and are kept apart here.

Broadly, the % Inhibition is the change of the read-out against control, counted positive when it falls. Regarding `CN[C@@H]1[C@@H](O)[C@@H](O[C@@H]2[C@@H](O)[C@H](O[C@H]3O[C@H]([C@@H](C)O)[C@@H](O)[C@H](O)[C@H]3N)[C@@H](N)C[C@H]2N)OC[C@]1(C)O` [G418], the “inhibition of amplification of wild-type vaccinia virus” value in the assay with wild-type vaccinia virus (0.125 to 2 mg/ml of G418, in words) is listed as “significantly inhibited”. Also, the “% Inhibition” value in the assay on wild-type vaccinia virus (G418 0.125 mg/ml) is 60.8%; in the assay with wild-type vaccinia virus (G418 0.25 mg/ml), 79.4%; in the assay on wild-type vaccinia virus (G418 0.5 mg/ml) it was 93.7%; with wild-type vaccinia virus (G418 1 mg/ml), 96.6%; in the assay on wild-type vaccinia virus (G418 2 mg/ml), 99.6%; in the assay with VHE H5 HX-A56R NEO (G418 0.125 mg/ml), −26.7%. The “% Inhibition” value with VHE H5 HX-A56R NEO (G418 0.25 mg/ml) is −36.7%; with VHE H5 HX-A56R NEO (G418 0.5 mg/ml), −50.0%; in the assay with VHE H5 HX-A56R NEO (G418 1 mg/ml), −40.0%; in the assay with VHE H5 HX-A56R NEO (G418 2 mg/ml), −33.3%. In addition, the Titer in the assay on wild-type vaccinia virus (G418 0.125 mg/ml) is 1.58E+07; in the assay with wild-type vaccinia virus (G418 0.25 mg/ml), 8.26E+06; in the assay with wild-type vaccinia virus (G418 0.5 mg/ml), 2.54E+06; in the assay with wild-type vaccinia virus (G418 1 mg/ml), 1.36E+06; with wild-type vaccinia virus (G418 2 mg/ml), 1.59E+05; in the assay with VHE H5 HX-A56R NEO (G418 0.125 mg/ml), 2.88E+07. In addition, the Titer turned out to be 3.11E+07 in the assay on VHE H5 HX-A56R NEO (G418 0.25 mg/ml), 3.41E+07 in the assay with VHE H5 HX-A56R NEO (G418 0.5 mg/ml), 3.18E+07 in the assay with VHE H5 HX-A56R NEO (G418 1 mg/ml) and 3.03E+07 in the assay on VHE H5 HX-A56R NEO (G418 2 mg/ml). For the same compound, in the assay with VHE H5 HX-A56R NEO, the “inhibition of amplification of vaccinia virus expressing heavy chain linked to a neomycin resistance marker” value was “no inhibition effect”.
